According to patent publication US20250084039A1, “4-SUBSTITUTED AMINOISOQUINOLINE DERIVATIVES” (Purdue Research Foundation, priority 2016, published 2025):
“And” between values parts separate entries of the source, which are not always exact repeats. Identical values can stand only once. Like-named read-outs stand apart in the source and are kept apart here.

What was measured:
ABL1 phosphorylated = ABL1 phosphorylated (Homo sapiens (Human), UniProt P00519); assay: DiscoverX Kd Elect binding
ABL1 non-phosphorylated = ABL1 non-phosphorylated (Homo sapiens (Human), UniProt P00519); assay: DiscoverX Kd Elect binding
MV4-11 = assay: IC50 determination (proliferation assay, CellTiter-Blue); format: cell-based
Method in brief: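 MOLM14 and MV4-11 cells seeded about 18 h before compound addition (DMSO-diluted), then 72 h exposure.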

FLT3 (D835V) = FLT3 (D835V) (Homo sapiens (Human), UniProt P36888, D835V); assay: DiscoverX Kd Elect binding
Text: (§1) Although the current drugs on the market or in clinical trials are relatively successful in killing the AML leukemia cells, they currently are unable to deal with secondary mutations that occur after TKI treatment, such as FLT3 ([…]).

FLT3 (ITD) = FLT3 (ITD) (Homo sapiens, UniProt P36888, ITD); assay: DiscoverX Kd Elect binding; details: Kd FLT3 (ITD)
Text: as §1

NCI H1703 (NSCLC) = assay: Activity against lung cancer cell line; format: cell-based; details: Homo sapiens, NCI-H1703
FLT3 = FLT3 (Homo sapiens (Human), UniProt P36888); assay: DiscoverX Kd Elect binding
Text: as §1
HCK is expressed more in human primary leukemic stem cells than in human normal hematopoietic stem cells. […] Other protein kinases such as SYK, BRAF, p38 (p38MAPK), PDGFRα/β, FGFR1, RET, FLT4, Tie2 have also been linked to leukemia. […] (Table 9). The inhibition of the Src-kinase family could be important clinically because these kinases are downstream of FLT3. In the event of FLT3 mutation, the inhibition of the Src-family kinases could still lead to proliferation inhibition.

MEK1 = MEK1 (Homo sapiens (Human), UniProt Q02750); assay: Reaction Biology HotSpot kinase assay; format: biochemical; details: 500 nM compound; for inhibition at 0.5 µM: read-out: Percentage kinase inhibition MEK1
Sequence of MEK1 (Q02750 whole entry): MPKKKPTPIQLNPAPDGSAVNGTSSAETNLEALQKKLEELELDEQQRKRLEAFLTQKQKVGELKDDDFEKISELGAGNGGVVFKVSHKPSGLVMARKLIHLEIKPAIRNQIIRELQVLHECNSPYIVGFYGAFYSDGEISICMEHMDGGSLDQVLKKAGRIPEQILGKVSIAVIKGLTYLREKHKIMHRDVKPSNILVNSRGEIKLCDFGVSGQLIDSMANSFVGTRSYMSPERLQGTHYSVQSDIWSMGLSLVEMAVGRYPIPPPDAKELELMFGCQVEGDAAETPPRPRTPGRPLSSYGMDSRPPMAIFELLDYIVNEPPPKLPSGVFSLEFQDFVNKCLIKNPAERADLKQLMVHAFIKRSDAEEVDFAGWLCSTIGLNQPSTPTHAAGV
Method in brief: (§2)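 Read-out is percent remaining kinase activity relative to a DMSO vehicle reaction. Compound was tested once at 500 nM and preincubated 20 min with kinase and substrate, then the reaction ran 2 h at room temperature with 100 μM final ATP spiked with [γ-33P]ATP before spotting onto P81 ion-exchange paper.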

DNA-PK = DNA-PK (Homo sapiens (Human), UniProt P78527); assay: Reaction Biology HotSpot kinase assay; format: biochemical; details: 500 nM compound; read-out: Percentage kinase inhibition DNA-PK
Method in brief: as §2

ROCK1 = ROCK1 (Homo sapiens (Human), UniProt Q13464); assay: Reaction Biology HotSpot kinase assay; format: biochemical; details: 500 nM compound; for inhibition at 0.5 µM: read-out: Percentage kinase inhibition ROCK1
Sequence of ROCK1 (Q13464 whole entry): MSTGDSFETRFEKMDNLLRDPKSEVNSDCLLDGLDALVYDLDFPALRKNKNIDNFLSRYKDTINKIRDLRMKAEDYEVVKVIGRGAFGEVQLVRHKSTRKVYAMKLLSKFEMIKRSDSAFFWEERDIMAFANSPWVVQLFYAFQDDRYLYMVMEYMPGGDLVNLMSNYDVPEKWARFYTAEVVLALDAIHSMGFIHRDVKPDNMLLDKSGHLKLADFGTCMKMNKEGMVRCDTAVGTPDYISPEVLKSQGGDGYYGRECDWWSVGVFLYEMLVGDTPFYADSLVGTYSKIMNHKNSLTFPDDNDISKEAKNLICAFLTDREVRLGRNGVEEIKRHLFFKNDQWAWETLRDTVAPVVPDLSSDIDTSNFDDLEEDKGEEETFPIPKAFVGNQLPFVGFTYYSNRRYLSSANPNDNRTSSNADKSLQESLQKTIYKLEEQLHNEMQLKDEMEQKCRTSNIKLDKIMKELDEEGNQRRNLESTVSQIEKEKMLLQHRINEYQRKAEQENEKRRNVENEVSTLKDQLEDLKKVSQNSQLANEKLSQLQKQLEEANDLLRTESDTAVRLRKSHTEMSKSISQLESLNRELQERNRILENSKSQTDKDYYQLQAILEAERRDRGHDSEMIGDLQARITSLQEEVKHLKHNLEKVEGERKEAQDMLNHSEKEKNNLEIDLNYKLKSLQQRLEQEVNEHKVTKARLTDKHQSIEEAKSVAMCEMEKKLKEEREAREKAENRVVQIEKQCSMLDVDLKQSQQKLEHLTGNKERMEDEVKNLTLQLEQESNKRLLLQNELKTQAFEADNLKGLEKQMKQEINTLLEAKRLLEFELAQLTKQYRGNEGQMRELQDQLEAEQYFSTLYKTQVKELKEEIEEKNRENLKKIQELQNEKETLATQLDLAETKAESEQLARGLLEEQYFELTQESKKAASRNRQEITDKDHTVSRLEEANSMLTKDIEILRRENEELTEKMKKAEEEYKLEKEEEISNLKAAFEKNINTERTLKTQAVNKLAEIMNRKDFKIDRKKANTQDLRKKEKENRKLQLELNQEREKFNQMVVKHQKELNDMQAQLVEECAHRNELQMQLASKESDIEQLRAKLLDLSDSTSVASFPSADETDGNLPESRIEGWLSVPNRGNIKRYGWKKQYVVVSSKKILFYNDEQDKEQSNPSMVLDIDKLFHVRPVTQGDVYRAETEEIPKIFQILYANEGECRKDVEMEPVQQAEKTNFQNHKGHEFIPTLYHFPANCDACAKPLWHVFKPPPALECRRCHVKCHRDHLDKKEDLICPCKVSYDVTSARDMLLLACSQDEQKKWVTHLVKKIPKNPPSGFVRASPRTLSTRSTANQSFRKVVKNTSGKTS
Method in brief: as §2

FMS = FMS (Homo sapiens (Human), UniProt P07333); assay: Reaction Biology HotSpot kinase assay; format: biochemical; details: 500 nM compound; for inhibition at 0.5 µM: read-out: Percentage kinase inhibition FMS
Sequence of FMS (P07333 20-972): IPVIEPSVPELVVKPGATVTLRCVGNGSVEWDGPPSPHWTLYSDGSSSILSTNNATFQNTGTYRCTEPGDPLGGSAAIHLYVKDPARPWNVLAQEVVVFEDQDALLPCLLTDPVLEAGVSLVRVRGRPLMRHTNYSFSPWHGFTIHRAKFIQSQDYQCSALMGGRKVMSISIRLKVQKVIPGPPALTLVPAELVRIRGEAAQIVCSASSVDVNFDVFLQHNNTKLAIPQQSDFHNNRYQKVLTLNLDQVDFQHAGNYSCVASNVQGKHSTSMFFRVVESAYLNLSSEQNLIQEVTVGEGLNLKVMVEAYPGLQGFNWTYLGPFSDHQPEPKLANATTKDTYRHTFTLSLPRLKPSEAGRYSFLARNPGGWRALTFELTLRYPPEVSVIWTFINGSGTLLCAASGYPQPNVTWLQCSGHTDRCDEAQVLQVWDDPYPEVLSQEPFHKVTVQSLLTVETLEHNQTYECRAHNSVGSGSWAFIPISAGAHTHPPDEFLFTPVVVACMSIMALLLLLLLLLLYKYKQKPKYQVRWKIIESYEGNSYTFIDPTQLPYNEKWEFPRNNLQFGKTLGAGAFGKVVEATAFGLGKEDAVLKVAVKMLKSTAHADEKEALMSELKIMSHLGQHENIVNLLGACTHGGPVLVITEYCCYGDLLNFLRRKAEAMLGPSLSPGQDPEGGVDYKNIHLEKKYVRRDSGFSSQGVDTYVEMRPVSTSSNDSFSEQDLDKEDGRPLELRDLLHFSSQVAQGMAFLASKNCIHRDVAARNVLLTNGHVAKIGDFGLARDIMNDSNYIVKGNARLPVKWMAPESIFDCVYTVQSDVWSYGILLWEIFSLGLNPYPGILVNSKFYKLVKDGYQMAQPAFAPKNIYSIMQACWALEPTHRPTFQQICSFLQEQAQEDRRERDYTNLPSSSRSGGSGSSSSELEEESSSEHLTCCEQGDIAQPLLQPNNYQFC
Method in brief: as §2

DDR2 = DDR2 (Homo sapiens (Human), UniProt Q16832); assay: Reaction Biology HotSpot kinase assay; format: biochemical; details: 500 nM compound; for inhibition at 0.5 µM: read-out: Percentage kinase inhibition DDR2
Sequence of DDR2 (Q16832 22-855): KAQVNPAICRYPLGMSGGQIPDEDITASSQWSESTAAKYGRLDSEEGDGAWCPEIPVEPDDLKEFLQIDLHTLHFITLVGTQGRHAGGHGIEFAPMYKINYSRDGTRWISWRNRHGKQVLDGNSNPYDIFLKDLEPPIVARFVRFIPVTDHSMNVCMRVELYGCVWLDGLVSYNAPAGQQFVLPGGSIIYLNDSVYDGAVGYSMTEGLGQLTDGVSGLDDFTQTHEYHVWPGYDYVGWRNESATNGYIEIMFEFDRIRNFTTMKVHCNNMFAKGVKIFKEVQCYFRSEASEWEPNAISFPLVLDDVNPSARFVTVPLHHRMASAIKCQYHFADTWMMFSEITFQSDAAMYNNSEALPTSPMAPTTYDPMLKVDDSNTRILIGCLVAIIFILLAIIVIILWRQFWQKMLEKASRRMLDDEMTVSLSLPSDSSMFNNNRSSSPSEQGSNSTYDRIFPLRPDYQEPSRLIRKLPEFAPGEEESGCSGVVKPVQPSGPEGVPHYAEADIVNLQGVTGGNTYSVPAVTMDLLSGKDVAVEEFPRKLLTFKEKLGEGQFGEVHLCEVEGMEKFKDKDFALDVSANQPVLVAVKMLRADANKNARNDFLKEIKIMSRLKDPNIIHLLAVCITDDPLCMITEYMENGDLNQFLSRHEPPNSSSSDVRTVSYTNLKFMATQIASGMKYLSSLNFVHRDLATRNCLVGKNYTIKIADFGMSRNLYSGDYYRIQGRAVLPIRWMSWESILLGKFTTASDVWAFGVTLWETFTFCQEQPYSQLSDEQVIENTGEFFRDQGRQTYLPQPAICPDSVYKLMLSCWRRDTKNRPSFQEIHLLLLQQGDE
Method in brief: as §2

[1] = biological target: ABL1 (T315I) non-phosphorylated (Homo sapiens (Human), UniProt P00519, T315I); assay: DiscoverX Kd Elect binding
HCT116 = assay: Proliferation inhibition at single concentration (CellTiter-Blue); format: cell-based; details: 1 μM compound
RIPK3 = RIPK3 (Homo sapiens (Human), UniProt Q9Y572); assay: Reaction Biology HotSpot kinase assay; format: biochemical; details: 500 nM compound; read-out: Percentage kinase inhibition RIPK3
Sequence of RIPK3 (Q9Y572 whole entry): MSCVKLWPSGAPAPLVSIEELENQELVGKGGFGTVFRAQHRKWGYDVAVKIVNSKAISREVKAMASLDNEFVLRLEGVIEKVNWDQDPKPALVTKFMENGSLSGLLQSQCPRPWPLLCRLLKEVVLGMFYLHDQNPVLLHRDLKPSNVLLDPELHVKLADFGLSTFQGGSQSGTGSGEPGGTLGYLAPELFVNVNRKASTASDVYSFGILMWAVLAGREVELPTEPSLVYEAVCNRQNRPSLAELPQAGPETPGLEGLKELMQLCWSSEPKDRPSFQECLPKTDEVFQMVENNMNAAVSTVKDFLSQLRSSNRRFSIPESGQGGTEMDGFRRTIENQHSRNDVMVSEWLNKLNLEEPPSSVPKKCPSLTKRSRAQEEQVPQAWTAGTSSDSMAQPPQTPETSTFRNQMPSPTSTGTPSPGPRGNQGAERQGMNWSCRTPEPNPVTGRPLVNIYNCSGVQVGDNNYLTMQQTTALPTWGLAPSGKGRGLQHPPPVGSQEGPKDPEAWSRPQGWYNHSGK
Method in brief: as §2

RIPK2 = RIPK2 (Homo sapiens (Human), UniProt O43353); assay: Reaction Biology HotSpot kinase assay; format: biochemical; details: 500 nM compound; read-out: Percentage kinase inhibition RIPK2
Method in brief: as §2

MEKK2 = MEKK2 (Homo sapiens (Human), UniProt Q9Y2U5); assay: Reaction Biology HotSpot kinase assay; format: biochemical; details: 500 nM compound; read-out: Percentage kinase inhibition MEKK2
Method in brief: as §2

FGFR2 = FGFR2 (Homo sapiens (Human), UniProt P21802); assay: Reaction Biology HotSpot kinase assay; format: biochemical; details: 500 nM compound; read-out: Percentage kinase inhibition FGFR2
Sequence of FGFR2 (P21802 22-821): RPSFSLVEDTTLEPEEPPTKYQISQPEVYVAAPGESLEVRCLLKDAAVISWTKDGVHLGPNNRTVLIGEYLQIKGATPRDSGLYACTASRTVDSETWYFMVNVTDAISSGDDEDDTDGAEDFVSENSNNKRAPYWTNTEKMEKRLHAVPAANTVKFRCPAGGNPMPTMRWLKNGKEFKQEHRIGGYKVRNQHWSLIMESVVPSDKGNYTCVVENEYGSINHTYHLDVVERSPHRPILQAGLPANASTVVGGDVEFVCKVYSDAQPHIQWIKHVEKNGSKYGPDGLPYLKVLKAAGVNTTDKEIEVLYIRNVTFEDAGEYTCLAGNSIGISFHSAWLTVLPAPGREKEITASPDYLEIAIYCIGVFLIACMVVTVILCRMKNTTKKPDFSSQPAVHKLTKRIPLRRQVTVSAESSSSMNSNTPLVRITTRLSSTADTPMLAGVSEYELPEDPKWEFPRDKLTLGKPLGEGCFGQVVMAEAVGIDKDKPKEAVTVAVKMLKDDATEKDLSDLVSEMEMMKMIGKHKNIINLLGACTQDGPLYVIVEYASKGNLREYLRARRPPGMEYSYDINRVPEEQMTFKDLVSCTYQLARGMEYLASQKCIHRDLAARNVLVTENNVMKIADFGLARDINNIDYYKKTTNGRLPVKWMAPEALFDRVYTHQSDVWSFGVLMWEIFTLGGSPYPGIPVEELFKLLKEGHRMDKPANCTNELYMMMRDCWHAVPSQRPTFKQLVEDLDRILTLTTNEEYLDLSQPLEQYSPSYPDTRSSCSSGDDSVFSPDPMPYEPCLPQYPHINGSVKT
Method in brief: as §2

RIPK4 = RIPK4 (Homo sapiens (Human), UniProt P57078); assay: Reaction Biology HotSpot kinase assay; format: biochemical; details: 500 nM compound; read-out: Percentage kinase inhibition RIPK4
Method in brief: as §2

DAPK1 = DAPK1 (Homo sapiens (Human), UniProt P53355); assay: Reaction Biology HotSpot kinase assay; format: biochemical; details: 500 nM compound; read-out: Percentage kinase inhibition DAPK1
Method in brief: as §2

FGFR4 = FGFR4 (Homo sapiens (Human), UniProt P22455); assay: Reaction Biology HotSpot kinase assay; format: biochemical; details: 500 nM compound; read-out: Percentage kinase inhibition FGFR4
Method in brief: as §2

MV-4-11 = assay: Proliferation inhibition at single concentration (CellTiter-Blue); format: cell-based; details: 1 μM compound

Row | IC50 (MV4-11; Homo sapiens, MV4-11) [nM] | SMILES | Kd (ABL1 phosphorylated) [nM] | Kd (ABL1 non-phosphorylated) [nM] | IC50 (MV4-11) [nM] | proliferation inhibition in words, MV4-11 / AML (MV4-11) | Kd (FLT3 (D835V)) [nM] | Kd (FLT3 (ITD)) | IC50 (NCI H1703 (NSCLC)) [nM] | Kd (FLT3) | inhibition at 0.5 µM (MEK1) [%] | inhibition at 0.5 µM (DNA-PK) [%] | inhibition at 0.5 µM (ROCK1) [%] | inhibition at 0.5 µM (FMS) [%] | inhibition at 0.5 µM (DDR2) [%] | Kd [1] [nM] | inhibition at 0.5 µM (RIPK3) [%] | inhibition at 0.5 µM (RIPK2) [%] | inhibition at 0.5 µM (MEKK2) [%] | inhibition at 0.5 µM (FGFR2) [%] | inhibition at 0.5 µM (RIPK4) [%] | further results
1 | 135 ± 5.87 | COc1cc2nc(N)nc(C#Cc3cc(C(=O)Nc4ccc(CN5CCN(C)CC5)c(C(F)(F)F)c4)ccc3C)c2cc1OC [HSN325] | – | – | – | – | – | – | – | – | 2 | 0 | 3 | 93 | 81 | – | – | – | – | – | – | –
2 | – | Cc1ccc(C(=O)Nc2ccc(CN3CCN(C)CC3)c(C(F)(F)F)c2)cc1C#Cc1c(N)ncc2ccc(Cl)cc12 [HSN286] | 7.9 | 7.2 | – | – | 120 | 27.6 nM and 26 nM | 50 | 6.5 nM and 7.2 nM | 0 | 0 | 0 | 99 | 77 | 29 | 96 | 25 | 52 | 96 | 32 | inhibition at 1 µM (HCT116; Homo sapiens, HCT-116, read-out: Percent inhibition of proliferation HCT116): 100%; inhibition at 0.5 µM (DAPK1): 9%; inhibition at 0.5 µM (FGFR4): 82%; inhibition at 1 µM (MV-4-11; Homo sapiens, MV4-11, read-out: Percent inhibition of proliferation MV-4-11): 99%
3 | – | Cc1ccc(C(=O)Nc2ccc(CN3CCN(C)CC3)c(C(F)(F)F)c2)cc1C#Cc1cnc(N)c2ncccc12 [HSN356, 3-((8-amino-1,7-naphthyridin-5-yl)ethynyl)-4-methyl-N-(4-((4-methylpiperazin-1-yl)methyl)-3-(trifluoromethyl)phenyl)benzamide] | 1.2 | 2.5 | – | potent proliferation inhibitors | 19 | 6.7 nM | 88 | 1.3 nM | – | – | – | – | – | 2.4 | – | – | – | – | – | –
4 | 721 ± 5.8 | Cc1ccc(C(=O)Nc2ccc(CN3CCN(C)CC3)c(C(F)(F)F)c2)cc1C#Cc1cc(N)nc2ccccc12 [HSN285] | – | – | – | neither potent inhibitors of FLT3 nor active against MV4-11 or MOLM-14 | – | – | – | – | – | – | – | – | – | – | 0 | 0 | 0 | 0 | 25 | inhibition at 0.5 µM (DAPK1): 14%; inhibition at 0.5 µM (FGFR4): 0%
5 | – | CN(C)CC(O)CNC(=O)c1ccc(C#Cc2c(N)ncc3ccc(Cl)cc23)cc1 (stereo not drawn) [HSM1702] | – | – | 71 ± 1.1 | – | – | – | – | – | – | – | – | – | – | – | – | – | – | – | – | Percent inhibition of proliferation HCT116 (HCT116): 33%; Percentage kinase inhibition MEK1 (MEK1): 0%; Percentage kinase inhibition ROCK1 (ROCK1): 0%; Percentage kinase inhibition FMS (FMS): 35%; Percentage kinase inhibition DDR2 (DDR2): 0%; Percent inhibition of proliferation MV-4-11 (MV-4-11): 99%

Row | SMILES | IC50 (MV4-11; Homo sapiens, MV4-11) [nM] | Kd (ABL1 phosphorylated) [nM] | Kd (ABL1 non-phosphorylated) [nM] | IC50 (MV4-11) [nM] | proliferation inhibition in words, MV4-11 / AML (MV4-11) | Kd (FLT3 (D835V)) [nM] | Kd (FLT3 (ITD)) | IC50 (NCI H1703 (NSCLC)) [nM] | Kd (FLT3) | inhibition at 0.5 µM (MEK1) [%] | inhibition at 0.5 µM (DNA-PK) [%] | inhibition at 0.5 µM (ROCK1) [%] | inhibition at 0.5 µM (FMS) [%] | inhibition at 0.5 µM (DDR2) [%] | Kd [1] [nM] | inhibition at 0.5 µM (RIPK3) [%] | inhibition at 0.5 µM (RIPK2) [%] | inhibition at 0.5 µM (MEKK2) [%] | inhibition at 0.5 µM (FGFR2) [%] | inhibition at 0.5 µM (RIPK4) [%] | further results
6 | Cc1ccc(C(=O)Nc2ccc(CN3CCN(C)CC3)c(C(F)(F)F)c2)cc1C#Cc1cnc(N)c2ccccc12 [HSN334, 3-((1-aminoisoquinolin-4-yl)ethynyl)-4-methyl-N-(4-((4-methylpiperazin-1-yl)methyl)-3-(trifluoromethyl)phenyl)benzamide] | < 1 | 12 | 4.4 | 1.38 ± 0.1 | potent proliferation inhibitors | 120 | 19 nM | 98 | 5.1 nM | – | – | – | – | – | – | – | – | – | – | – | –
